Assay results as given in patent US20250333745A1, “METHODS AND COMPOSITIONS FOR TREATMENT OF POLYCYSTIC KIDNEY DISEASE” (Regulus Therapeutics Inc., priority 2016, published 2025).

Assay: Metabolic stability in liver homogenate, summary over species
Format: in vitro ADME
Conditions: mouse, monkey or human liver homogenate
Description: Due to their reduced capacity for serum protein binding, which is a property that drives oligonucleotide distribution in the body, short oligonucleotides are not necessarily expected to have pharmacokinetic properties that make them suitable for use as drugs. RG4326 was incubated in mouse, monkey or human liver homogenate. The identity and concentration of RG4326 and metabolites was determined after a 24-hour incubation. RG4326 and metabolites were extracted using liquid-liquid extraction (LLE) and/or solid-phase extraction (SPE), which were then analyzed for identity and concentration using ion-pairing-reversed-phase high performance liquid chromatography coupled with time-of-flight mass spectrometry (IP—RP-HPLC-TOF).

COC1C(OP(=O)(S)OC[C@H]2O[C@@H](n3cnc4c(N)ncnc43)C(F)C2OP(=O)(S)OC[C@H]2O[C@@H](n3ccc(N)nc3=O)C(F)C2OP(=O)(S)OC[C@H]2O[C@@H](n3ccc(=O)[nH]c3=O)C(F)C2OP(=O)(S)OC[C@H]2O[C@@H](n3ccc(=O)[nH]c3=O)C(OC)C2OP(=O)(S)OC[C@]23O[C@@H](n4ccc(=O)[nH]c4=O)C(O[C@H]2C)C3OP(=O)(S)OC[C@]23O[C@@H](n4cnc5c(=O)[nH]c(N)nc54)C(O[C@H]2C)C3O)[C@@H](COP(=O)(S)OC2C3O[C@@H](C)[C@]2(COP(=O)(S)OC2C4O[C@@H](C)[C@]2(CO)O[C@H]4n2cnc4c(N)ncnc42)O[C@H]3n2cnc3c(=O)[nH]c(N)nc32)O[C@H]1n1ccc(N)nc1=O (stereo in doubt) [RG4326, ASGSCMAFCFUFUMUSGS]
parent compound remaining intact after the 24-hour incubation: over 95%
